In publication PMC9403976, “Elucidating the path to Plasmodium prolyl-tRNA synthetase inhibitors that overcome halofuginone resistance” (Nature Communications, 2022):
pIC50: −log10 of the molar value. Where “and” joins values, the source holds several entries; their conditions need not be identical. Equal entries are not always repeated. Where two headings read alike, the source gives them in different places.

Key:
HsProRS = HsProRS (Homo sapiens, UniProt P07814); assay: TR-FRET ligand displacement assay with tracer MAT379 (CoraFluor-1-Halo and anti-His6 antibody formats); type: binding; set-up: made in house; host or cells: E. coli SoluBL-21; details: for TR-FRET dose-response, normalized signal (SI Fig 11): individual replicates
PfcProRS = target: T1, PfcProRS (Plasmodium falciparum, UniProt Q8I5R7); type: binding; details: single replicates
T1 construct: made in house; host or cells: E. coli SoluBL-21
T1 sequence (Q8I5R7 249-746): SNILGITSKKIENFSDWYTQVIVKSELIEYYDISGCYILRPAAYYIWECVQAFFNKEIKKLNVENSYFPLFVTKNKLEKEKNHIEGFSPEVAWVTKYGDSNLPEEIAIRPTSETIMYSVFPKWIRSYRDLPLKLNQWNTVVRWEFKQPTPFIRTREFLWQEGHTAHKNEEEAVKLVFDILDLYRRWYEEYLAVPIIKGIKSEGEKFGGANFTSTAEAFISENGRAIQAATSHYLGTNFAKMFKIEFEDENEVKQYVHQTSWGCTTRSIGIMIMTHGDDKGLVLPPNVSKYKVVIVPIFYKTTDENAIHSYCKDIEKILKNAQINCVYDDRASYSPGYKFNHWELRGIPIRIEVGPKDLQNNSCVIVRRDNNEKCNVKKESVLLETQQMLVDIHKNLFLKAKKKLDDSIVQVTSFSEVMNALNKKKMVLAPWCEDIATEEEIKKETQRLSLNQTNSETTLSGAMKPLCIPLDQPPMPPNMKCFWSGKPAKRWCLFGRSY

Chain of HsProRS (P07814 996-1512): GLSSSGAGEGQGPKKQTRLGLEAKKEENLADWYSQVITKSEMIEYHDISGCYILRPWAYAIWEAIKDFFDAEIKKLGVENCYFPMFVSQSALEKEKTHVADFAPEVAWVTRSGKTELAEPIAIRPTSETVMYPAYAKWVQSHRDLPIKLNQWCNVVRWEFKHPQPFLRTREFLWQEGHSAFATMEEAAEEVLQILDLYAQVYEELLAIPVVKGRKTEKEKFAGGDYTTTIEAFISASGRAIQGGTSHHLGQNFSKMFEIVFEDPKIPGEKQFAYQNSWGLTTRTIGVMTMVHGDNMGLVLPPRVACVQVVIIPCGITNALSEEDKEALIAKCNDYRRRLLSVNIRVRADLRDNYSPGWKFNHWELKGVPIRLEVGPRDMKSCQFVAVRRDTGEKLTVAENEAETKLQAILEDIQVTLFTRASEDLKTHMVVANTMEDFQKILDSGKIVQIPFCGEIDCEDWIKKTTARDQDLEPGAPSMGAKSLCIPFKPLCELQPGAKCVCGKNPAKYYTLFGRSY

CC(C)(C)OC(=O)N1CCN(C(=O)Nc2nccnc2C(=O)NC2Cc3ccccc3C2)CC1 [compound 13]
pIC50 (HsProRS): < 5.00
HsProRS % signal at 10 μM, + 100 μM proline (HsProRS; + 100 μM proline, 10 μM): 52.2%
normalized TR-FRET ligand displacement signal, dose-response replicates (SI Fig 6) (HsProRS; Log[inhibitor] (M) -5.000): 5.04E-01 and 5.72E-01 and 5.31E-01
TR-FRET dose-response, normalized signal (SI Fig 11) (HsProRS; Log[inhibitor] (M) -5.000): 5.54E-01 and 6.12E-01 and 6.15E-01
normalized TR-FRET ligand displacement signal, dose-response replicates (SI Fig 6) (HsProRS; Log[inhibitor] (M) -5.301): 6.63E-01 and 7.73E-01 and 7.12E-01
TR-FRET dose-response, normalized signal (SI Fig 11) (HsProRS; Log[inhibitor] (M) -5.301): 7.87E-01 and 7.25E-01 and 6.74E-01
normalized TR-FRET ligand displacement signal, dose-response replicates (SI Fig 6) (HsProRS; Log[inhibitor] (M) -5.601): 9.43E-01 and 7.95E-01 and 9.57E-01
TR-FRET dose-response, normalized signal (SI Fig 11) (HsProRS; Log[inhibitor] (M) -5.601): 8.12E-01 and 8.26E-01 and 8.38E-01
normalized TR-FRET ligand displacement signal, dose-response replicates (SI Fig 6) (HsProRS; Log[inhibitor] (M) -5.904): 9.95E-01 and 9.88E-01 and 9.03E-01
TR-FRET dose-response, normalized signal (SI Fig 11) (HsProRS; Log[inhibitor] (M) -5.904): 8.50E-01 and 8.61E-01 and 8.43E-01
normalized TR-FRET ligand displacement signal, dose-response replicates (SI Fig 6) (HsProRS; Log[inhibitor] (M) -6.208): 1.02E+00 and 9.02E-01 and 9.17E-01
TR-FRET dose-response, normalized signal (SI Fig 11) (HsProRS; Log[inhibitor] (M) -6.208): 9.15E-01 and 9.28E-01 and 8.71E-01
normalized TR-FRET ligand displacement signal, dose-response replicates (SI Fig 6) (HsProRS; Log[inhibitor] (M) -6.509): 9.58E-01 and 9.37E-01 and 9.28E-01
TR-FRET dose-response, normalized signal (SI Fig 11) (HsProRS; Log[inhibitor] (M) -6.509): 9.05E-01 and 9.50E-01 and 9.14E-01
normalized TR-FRET ligand displacement signal, dose-response replicates (SI Fig 6) (HsProRS; Log[inhibitor] (M) -6.796): 1.05E+00 (2×) and 9.53E-01
TR-FRET dose-response, normalized signal (SI Fig 11) (HsProRS; Log[inhibitor] (M) -6.796): 9.07E-01 and 9.30E-01 and 8.71E-01
normalized TR-FRET ligand displacement signal, dose-response replicates (SI Fig 6) (HsProRS; Log[inhibitor] (M) -7.108): 1.05E+00 and 1.10E+00 and 9.73E-01
TR-FRET dose-response, normalized signal (SI Fig 11) (HsProRS; Log[inhibitor] (M) -7.108): 9.13E-01 and 9.30E-01 and 9.12E-01
normalized TR-FRET ligand displacement signal, dose-response replicates (SI Fig 6) (HsProRS; Log[inhibitor] (M) -7.409): 1.03E+00 and 1.01E+00 (2×)
TR-FRET dose-response, normalized signal (SI Fig 11) (HsProRS; Log[inhibitor] (M) -7.409): 9.32E-01 and 9.37E-01 and 8.25E-01
normalized TR-FRET ligand displacement signal, dose-response replicates (SI Fig 6) (HsProRS; Log[inhibitor] (M) -7.710): 9.23E-01 (2×) and 9.87E-01
TR-FRET dose-response, normalized signal (SI Fig 11) (HsProRS; Log[inhibitor] (M) -7.710): 9.18E-01 and 8.75E-01 and 8.91E-01
normalized TR-FRET ligand displacement signal, dose-response replicates (SI Fig 6) (HsProRS; Log[inhibitor] (M) -8.000): 9.04E-01 and 9.35E-01 and 9.98E-01
TR-FRET dose-response, normalized signal (SI Fig 11) (HsProRS; Log[inhibitor] (M) -8.000): 9.32E-01 and 9.16E-01 and 8.80E-01
normalized TR-FRET ligand displacement signal, dose-response replicates (SI Fig 6) (HsProRS; Log[inhibitor] (M) -8.301): 9.80E-01 and 9.08E-01 and 1.02E+00
TR-FRET dose-response, normalized signal (SI Fig 11) (HsProRS; Log[inhibitor] (M) -8.301): 8.80E-01 and 9.57E-01 and 9.53E-01
normalized TR-FRET ligand displacement signal, dose-response replicates (SI Fig 6) (HsProRS; Log[inhibitor] (M) -8.602): 9.80E-01 and 9.47E-01 and 9.05E-01
TR-FRET dose-response, normalized signal (SI Fig 11) (HsProRS; Log[inhibitor] (M) -8.602): 9.10E-01 and 9.58E-01 and 9.24E-01
normalized TR-FRET ligand displacement signal, dose-response replicates (SI Fig 6) (HsProRS; Log[inhibitor] (M) -9.000): 9.78E-01 and 9.57E-01 and 9.87E-01
TR-FRET dose-response, normalized signal (SI Fig 11) (HsProRS; Log[inhibitor] (M) -9.000): 9.07E-01 and 8.93E-01 and 8.97E-01
normalized TR-FRET ligand displacement signal, dose-response replicates (SI Fig 6) (HsProRS; Log[inhibitor] (M) -9.301): 9.45E-01 and 8.63E-01 and 9.67E-01
TR-FRET dose-response, normalized signal (SI Fig 11) (HsProRS; Log[inhibitor] (M) -9.301): 9.11E-01 and 8.69E-01 and 9.61E-01
HsProRS % signal at 10 μM (HsProRS; no added proline/ATP (-), 10 μM): 59.4%
pIC50 (HsProRS; read-out: HsProRS IC50 + 100 μM proline, + 100 μM proline): < 5.00
dose-response signal (normalized), SI Fig 8 (PfcProRS; Log[inhibitor] (M) -5.000): 6.57E-01 and 6.36E-01 and 6.64E-01
dose-response signal (normalized), SI Fig 8 (PfcProRS; Log[inhibitor] (M) -5.301): 8.73E-01 and 7.48E-01 and 7.96E-01
dose-response signal (normalized), SI Fig 8 (PfcProRS; Log[inhibitor] (M) -5.601): 9.97E-01 and 9.02E-01 and 8.50E-01
dose-response signal (normalized), SI Fig 8 (PfcProRS; Log[inhibitor] (M) -5.904): 9.78E-01 and 1.07E+00 and 1.00E+00
dose-response signal (normalized), SI Fig 8 (PfcProRS; Log[inhibitor] (M) -6.208): 1.06E+00 (2×) and 9.45E-01
dose-response signal (normalized), SI Fig 8 (PfcProRS; Log[inhibitor] (M) -6.509): 1.17E+00 and 1.01E+00 and 1.09E+00
dose-response signal (normalized), SI Fig 8 (PfcProRS; Log[inhibitor] (M) -6.796): 1.13E+00 and 1.01E+00 and 1.17E+00
dose-response signal (normalized), SI Fig 8 (PfcProRS; Log[inhibitor] (M) -7.108): 1.04E+00 and 9.91E-01 and 1.15E+00
dose-response signal (normalized), SI Fig 8 (PfcProRS; Log[inhibitor] (M) -7.409): 1.05E+00 and 1.06E+00 and 1.03E+00
dose-response signal (normalized), SI Fig 8 (PfcProRS; Log[inhibitor] (M) -7.710): 1.04E+00 and 9.80E-01 and 9.98E-01
dose-response signal (normalized), SI Fig 8 (PfcProRS; Log[inhibitor] (M) -8.000): 1.08E+00 and 9.50E-01 and 1.05E+00
dose-response signal (normalized), SI Fig 8 (PfcProRS; Log[inhibitor] (M) -8.301): 1.02E+00 and 1.08E+00 and 1.09E+00
dose-response signal (normalized), SI Fig 8 (PfcProRS; Log[inhibitor] (M) -8.602): 9.84E-01 and 9.74E-01 and 9.67E-01
dose-response signal (normalized), SI Fig 8 (PfcProRS; Log[inhibitor] (M) -9.000): 1.06E+00 and 9.60E-01 and 9.76E-01
dose-response signal (normalized), SI Fig 8 (PfcProRS; Log[inhibitor] (M) -9.301): 1.07E+00 and 9.33E-01 and 9.62E-01
